Experimental findings from patent US20070010671A1, “Novel quinazoline derivatives and methods of treatment related to the use thereof” (priority 2003, published 2007) are described below.

This assay concerns the target MCH receptor (Homo sapiens, UniProt Q99705). Briefly: High throughput functional screening FLIPR/FDSS6000: inhibition of MCH-evoked intracellular Ca2+ changes. Type of assay: cell-based. Conditions: class by percent of control at 10^-7 M or IC50. The essentials:
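Antagonism was measured as inhibition of calcium responses to 50 nM MCH, monitored 290 s at ex 488/em 530 nm on FLIPR or FDSS6000. Beforehand, cells bearing a constitutively active MCH receptor received Fluo4-AM (4 μM, 1 h, 37 °C) with probenecid, and test compound for 3 min.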

On to `COC(=O)c1ccc(NC(=S)NC[C@H]2CC[C@@H](Nc3nc(N(C)C)c4ccccc4n3)CC2)cc1` [compound 702], for which the class was 3 (Class 3: The value of percent of control at 10^−7 M was more than 60% or the value of IC50 was more than 200 nM.).
As for `Cc1ccc(NC(=S)NC[C@H]2CC[C@@H](Nc3nc(N(C)C)c4ccccc4n3)CC2)c([N+](=O)[O-])c1` [compound 703], the figure is 3 (Class 3: The value of percent of control at 10^−7 M was more than 60% or the value of IC50 was more than 200 nM.); as for `Cc1ccc(CNC(=S)NC[C@H]2CC[C@@H](Nc3nc(N(C)C)c4ccccc4n3)CC2)cc1` [compound 704], 3 (Class 3: The value of percent of control at 10^−7 M was more than 60% or the value of IC50 was more than 200 nM.); as for `CCCCc1ccc(NC(=S)NC[C@H]2CC[C@@H](Nc3nc(N(C)C)c4ccccc4n3)CC2)cc1` [compound 705], 3 (Class 3: The value of percent of control at 10^−7 M was more than 60% or the value of IC50 was more than 200 nM.).
As to `COc1ccc(Cl)cc1NC(=S)NC[C@H]1CC[C@@H](Nc2nc(N(C)C)c3ccccc3n2)CC1` [compound 706], the class is recorded as 2 (Class 2: The value of percent of control at 10^−7 M was from 40% to 60% or the value of IC50 was from 50 nM to 200 nM.).
With `CN(C)c1nc(N[C@H]2CC[C@@H](CNC(=S)NC(c3ccccc3)c3ccccc3)CC2)nc2ccccc12` [compound 708, N-[(cis-4-{[4-(dimethylamino)quinazolin-2-yl]amino}cyclohexyl)methyl]-N′-(diphenylmethyl)thiourea], the class is listed as 2 (Class 2: The value of percent of control at 10^−7 M was from 40% to 60% or the value of IC50 was from 50 nM to 200 nM.).
For the molecule `CN(C)c1nc(N[C@H]2CC[C@@H](CNC(=S)NC3CCCCCCCCCCC3)CC2)nc2ccccc12` [compound 709, N-cyclododecyl-N′-[(cis-4-{[4-(dimethylamino)quinazolin-2-yl]amino}cyclohexyl)methyl]thiourea], the class is 2 (Class 2: The value of percent of control at 10^−7 M was from 40% to 60% or the value of IC50 was from 50 nM to 200 nM.).
`CN(C)c1nc(N[C@H]2CC[C@@H](CNC(=S)NCC3CCCCC3)CC2)nc2ccccc12` [compound 710, N-(cyclohexylmethyl)-N′-[(cis-4-{[4-(dimethylamino)quinazolin-2-yl]amino}cyclohexyl)methyl]thiourea]: the class was 2 (Class 2: The value of percent of control at 10^−7 M was from 40% to 60% or the value of IC50 was from 50 nM to 200 nM.).
Take `CN(C)c1nc(N[C@H]2CC[C@@H](CNC(=S)NC3CCCCCCC3)CC2)nc2ccccc12` [compound 711]: the class is 3 (Class 3: The value of percent of control at 10^−7 M was more than 60% or the value of IC50 was more than 200 nM.).
As for `CN(C)c1nc(N[C@H]2CC[C@@H](CNC(=S)NC3CC3)CC2)nc2ccccc12` [compound 712], the class was 3 (Class 3: The value of percent of control at 10^−7 M was more than 60% or the value of IC50 was more than 200 nM.).
In the case of `CN(C)c1nc(N[C@H]2CC[C@@H](CNC(=S)NCc3cccc4ccccc34)CC2)nc2ccccc12` [compound 713], the class was 3 (Class 3: The value of percent of control at 10^−7 M was more than 60% or the value of IC50 was more than 200 nM.).
Next, `CN(C)c1nc(N[C@H]2CC[C@@H](CNC(=S)NCC(c3ccccc3)c3ccccc3)CC2)nc2ccccc12` [compound 714]: 3 (Class 3: The value of percent of control at 10^−7 M was more than 60% or the value of IC50 was more than 200 nM.); `CN(C)c1nc(N[C@H]2CC[C@@H](CNC(=S)Nc3c(Cl)c(Cl)cc(Cl)c3Cl)CC2)nc2ccccc12` [compound 715]: 1 (Class 1: The value of percent of control at 10^−7 M was less than 40% or the value of IC50 was less than 50 nM.).
Regarding `COc1cccc(CNC(=S)NC[C@H]2CC[C@@H](Nc3nc(N(C)C)c4ccccc4n3)CC2)c1OC` [compound 716], the class is listed as 2 (Class 2: The value of percent of control at 10^−7 M was from 40% to 60% or the value of IC50 was from 50 nM to 200 nM.).
For the molecule `Cc1cc(C)c(NC(=S)NC[C@H]2CC[C@@H](Nc3nc(N(C)C)c4ccccc4n3)CC2)cc1C` [compound 717], the class was 3 (Class 3: The value of percent of control at 10^−7 M was more than 60% or the value of IC50 was more than 200 nM.).
As to `CN(C)c1nc(N[C@H]2CC[C@@H](CNC(=S)NCc3ccc(Cl)cc3Cl)CC2)nc2ccccc12` [compound 718], the class is reported as 2 (Class 2: The value of percent of control at 10^−7 M was from 40% to 60% or the value of IC50 was from 50 nM to 200 nM.).
For the molecule `CN(C)c1nc(N[C@H]2CC[C@@H](CNC(=S)Nc3cc(Br)ccc3Br)CC2)nc2ccccc12` [compound 719], the class is reported as 3 (Class 3: The value of percent of control at 10^−7 M was more than 60% or the value of IC50 was more than 200 nM.).
For the molecule `COc1ccc(OC)c(CCNC(=S)NC[C@H]2CC[C@@H](Nc3nc(N(C)C)c4ccccc4n3)CC2)c1` [compound 720], the class was 3 (Class 3: The value of percent of control at 10^−7 M was more than 60% or the value of IC50 was more than 200 nM.).
Next, `CN(C)c1nc(N[C@H]2CC[C@@H](CNC(=S)Nc3ccccc3-c3ccccc3)CC2)nc2ccccc12` [compound 721]: 3 (Class 3: The value of percent of control at 10^−7 M was more than 60% or the value of IC50 was more than 200 nM.).
Next, `CN(C)c1nc(N[C@H]2CC[C@@H](CNC(=S)Nc3cc([N+](=O)[O-])ccc3Cl)CC2)nc2ccccc12` [compound 722]: 3 (Class 3: The value of percent of control at 10^−7 M was more than 60% or the value of IC50 was more than 200 nM.); `CN(C)c1nc(N[C@H]2CC[C@@H](CNC(=S)Nc3ccccc3C#N)CC2)nc2ccccc12` [compound 723]: 3 (Class 3: The value of percent of control at 10^−7 M was more than 60% or the value of IC50 was more than 200 nM.).
On to `CN(C)c1nc(N[C@H]2CC[C@@H](CNC(=S)NCc3ccccc3F)CC2)nc2ccccc12` [compound 724], for which the class is reported as 3 (Class 3: The value of percent of control at 10^−7 M was more than 60% or the value of IC50 was more than 200 nM.).
Turning to `COc1ccc([N+](=O)[O-])cc1NC(=S)NC[C@H]1CC[C@@H](Nc2nc(N(C)C)c3ccccc3n2)CC1` [compound 725], the class is reported as 2 (Class 2: The value of percent of control at 10^−7 M was from 40% to 60% or the value of IC50 was from 50 nM to 200 nM.).
As to `Cc1cc([N+](=O)[O-])ccc1NC(=S)NC[C@H]1CC[C@@H](Nc2nc(N(C)C)c3ccccc3n2)CC1` [compound 726], the class is 3 (Class 3: The value of percent of control at 10^−7 M was more than 60% or the value of IC50 was more than 200 nM.).
With `Cc1ccccc1CNC(=S)NC[C@H]1CC[C@@H](Nc2nc(N(C)C)c3ccccc3n2)CC1` [compound 727], the class was 3 (Class 3: The value of percent of control at 10^−7 M was more than 60% or the value of IC50 was more than 200 nM.).
Next, `COc1ccc(CNC(=S)NC[C@H]2CC[C@@H](Nc3nc(N(C)C)c4ccccc4n3)CC2)cc1OC` [compound 728]: 3 (Class 3: The value of percent of control at 10^−7 M was more than 60% or the value of IC50 was more than 200 nM.); `CN(C)c1nc(N[C@H]2CC[C@@H](CNC(=S)NCc3cccc(Cl)c3)CC2)nc2ccccc12` [compound 729]: 3 (Class 3: The value of percent of control at 10^−7 M was more than 60% or the value of IC50 was more than 200 nM.).
In the case of `CCOC(=O)c1cccc(NC(=S)NC[C@H]2CC[C@@H](Nc3nc(N(C)C)c4ccccc4n3)CC2)c1` [compound 730], the class is 3 (Class 3: The value of percent of control at 10^−7 M was more than 60% or the value of IC50 was more than 200 nM.).
Regarding `CCc1cccc(NC(=S)NC[C@H]2CC[C@@H](Nc3nc(N(C)C)c4ccccc4n3)CC2)c1` [compound 731], the class was 3 (Class 3: The value of percent of control at 10^−7 M was more than 60% or the value of IC50 was more than 200 nM.).
In the case of `CN(C)c1nc(N[C@H]2CC[C@@H](CNC(=S)NCc3cccc(F)c3)CC2)nc2ccccc12` [compound 732], the class is reported as 3 (Class 3: The value of percent of control at 10^−7 M was more than 60% or the value of IC50 was more than 200 nM.).
Consider `COc1cccc(CNC(=S)NC[C@H]2CC[C@@H](Nc3nc(N(C)C)c4ccccc4n3)CC2)c1` [compound 733], for which the class is 3 (Class 3: The value of percent of control at 10^−7 M was more than 60% or the value of IC50 was more than 200 nM.).
Turning to `Cc1cccc(CNC(=S)NC[C@H]2CC[C@@H](Nc3nc(N(C)C)c4ccccc4n3)CC2)c1` [compound 734], the class is listed as 3 (Class 3: The value of percent of control at 10^−7 M was more than 60% or the value of IC50 was more than 200 nM.).
As for `CN(C)c1nc(N[C@H]2CC[C@@H](CNC(=S)Nc3ccc(Br)c(Cl)c3)CC2)nc2ccccc12` [compound 735], the figure is 3 (Class 3: The value of percent of control at 10^−7 M was more than 60% or the value of IC50 was more than 200 nM.); as for `Cc1cc(NC(=S)NC[C@H]2CC[C@@H](Nc3nc(N(C)C)c4ccccc4n3)CC2)ccc1Br` [compound 736], 3 (Class 3: The value of percent of control at 10^−7 M was more than 60% or the value of IC50 was more than 200 nM.); as for `CN(C)c1nc(N[C@H]2CC[C@@H](CNC(=S)Nc3ccc(Cl)cc3C(F)(F)F)CC2)nc2ccccc12` [compound 737], 3 (Class 3: The value of percent of control at 10^−7 M was more than 60% or the value of IC50 was more than 200 nM.).
With `CCCCCCCCCCc1ccc(NC(=S)NC[C@H]2CC[C@@H](Nc3nc(N(C)C)c4ccccc4n3)CC2)cc1` [compound 738], the class was 3 (Class 3: The value of percent of control at 10^−7 M was more than 60% or the value of IC50 was more than 200 nM.).
Turning to `Cc1cc(F)ccc1NC(=S)NC[C@H]1CC[C@@H](Nc2nc(N(C)C)c3ccccc3n2)CC1` [compound 739], the class is given as 3 (Class 3: The value of percent of control at 10^−7 M was more than 60% or the value of IC50 was more than 200 nM.).
